Here are results for 9 molecules from ChEMBL document CHEMBL3046740, “Lonazolac analogues: molecular modeling, synthesis, and in vivo anti-inflammatory activity” (2009).

What all share (type): functional
The subject of test [1] is Mus musculus. Description: Analgesic activity in Mus musculus (mouse) assessed as paw withdrawal latency time at 50 mg/kg, ip after 30 min. The settings on record: route intraperitoneal.
In test [2] the test system is Rattus norvegicus. Description: Anti-inflammatory activity in Rattus norvegicus albino (rat) assessed as inhibition of carrageenan-induced paw edema at 50 mg/kg, po administered 30 min before carrageenan challenge measured after 24 hr.
For test [3], the system named is Rattus norvegicus. Description: Anti-inflammatory activity in Rattus norvegicus albino (rat) assessed as inhibition of carrageenan-induced paw edema at 50 mg/kg, po administered 30 min before carrageenan challenge measured after 4 hr.
The subject of test [4] is Rattus norvegicus. The experiment in a line: Anti-inflammatory activity in Rattus norvegicus albino (rat) assessed as inhibition of carrageenan-induced paw edema at 50 mg/kg, po administered 30 min before carrageenan challenge measured after 3 hr.
Test [5] relates to Rattus norvegicus. The experiment in a line: Anti-inflammatory activity in Rattus norvegicus albino (rat) assessed as inhibition of carrageenan-induced paw edema at 50 mg/kg, po administered 30 min before carrageenan challenge measured after 1 hr.
Test [6] concerns Rattus norvegicus. Description: Anti-inflammatory activity in Rattus norvegicus albino (rat) assessed as inhibition of carrageenan-induced paw edema at 50 mg/kg, po administered 30 min before carrageenan challenge measured after 2 hr.
Test [7] concerns Rattus norvegicus. The experiment in a line: Anti-inflammatory activity in Rattus norvegicus albino (rat) assessed as inhibition of carrageenan-induced paw edema at 10 mg/kg, po administered 30 min before carrageenan challenge measured after 24 hr.
The subject of test [8] is Rattus norvegicus. The experiment in a line: Anti-inflammatory activity in Rattus norvegicus albino (rat) assessed as inhibition of carrageenan-induced paw edema at 10 mg/kg, po administered 30 min before carrageenan challenge measured after 4 hr.
For test [9], the system named is Rattus norvegicus. The experiment in a line: Anti-inflammatory activity in Rattus norvegicus albino (rat) assessed as inhibition of carrageenan-induced paw edema at 10 mg/kg, po administered 30 min before carrageenan challenge measured after 3 hr.
Test [10] deals with Rattus norvegicus. The experiment in a line: Anti-inflammatory activity in Rattus norvegicus albino (rat) assessed as inhibition of carrageenan-induced paw edema at 10 mg/kg, po administered 30 min before carrageenan challenge measured after 2 hr.
In test [11] the test system is Rattus norvegicus. The experiment in a line: Anti-inflammatory activity in Rattus norvegicus albino (rat) assessed as inhibition of carrageenan-induced paw edema at 10 mg/kg, po administered 30 min before carrageenan challenge measured after 1 hr.
Test [12] relates to Mus musculus. The experiment in a line: Analgesic activity in Mus musculus (mouse) assessed as paw withdrawal latency time at 10 mg/kg, ip after 30 min. The settings on record: route intraperitoneal.

On to `O=C(O)CCC(=O)/C=C/c1cn(-c2ccccc2)nc1-c1ccc(Cl)cc1`, for which the Time in [1] is 4.09 s. Besides, the inhibition in vivo at 50 mg/kg in test [2] turned out to be 2.27%; in [3] it was 8.64%; in test [4] it was 6.32%; in test [5] it was 3.43%; in [6], 10.9%.

In the case of `Cc1ccc(-c2nn(-c3ccccc3)cc2/C=C/C(=O)CCC(=O)O)cc1`, the Time in test [1] is 6.47 s. Besides, the inhibition in vivo at 50 mg/kg in test [2] stood at 3.79%; in test [3], 13%; in test [4], 11.5%; in test [5] it was 4.41%; in test [6] it was 6.25%.

Turning to `NC(=O)c1ccccc1NC(=O)c1cn(-c2ccccc2)nc1-c1ccccc1`, the Time in test [1] came out at 6.29 s. Besides, the inhibition in vivo at 50 mg/kg in test [2] was -3.79%; in [3], 9.88%; in test [4], 14.4%; in test [5] it was 17.6%; in test [6] it was 13.5%.

Regarding `NC(=O)c1ccccc1NC(=O)c1cn(-c2ccccc2)nc1-c1ccc(Cl)cc1`, the Time in [1] is 4.89 s. For the same molecule, the inhibition in vivo at 50 mg/kg in test [2] was determined as 15.2%; in test [3], 9.26%; in test [4], 3.45%; in test [5], 1.96%; in [6], 9.38%.

Take `NC(=O)c1ccccc1OC(=O)c1cn(-c2ccccc2)nc1-c1ccc(Br)cc1`: the Time in [1] came out at 7.4 s. The inhibition in vivo at 50 mg/kg in test [2] was 3.09%; in [3], 6.14%; in [4] it was 8.6%; in [5] it was 26%; in [6], 10.4%.

As for `CC(=O)Nc1ccc(OC(=O)c2cn(-c3ccccc3)nc2-c2ccc(Cl)cc2)cc1`, in test [1], the Time was found to be 18.83 s. Moreover, the inhibition in vivo at 50 mg/kg in test [2] was 3.79%; in test [3], 16.1%; in test [4], 16.7%; in test [5] it was 17.8%; in test [6] it was 15.6%.

With `CC(=O)Nc1ccc(OC(=O)c2cn(-c3ccccc3)nc2-c2ccc(C)cc2)cc1`, the Time in test [1] is given as 8.32 s. Further, the inhibition in vivo at 50 mg/kg in test [2] worked out at 9.09%; in test [3], 3.7%; in test [4], 6.32%; in [5] it was 2.94%; in [6], 4.17%.

`O=C(O)CCC(=O)/C=C/c1cn(-c2ccccc2)nc1-c1ccccc1`: the Time in test [1] is on record as 18.51 s. In addition, the inhibition in vivo at 50 mg/kg is 8.33% in test [2]; 23.5% in [3]; 15.5% in test [4]; 27.9% in test [5]; 13.5% in [6].

With `COc1ccc2c(c1)c(CC(=O)O)c(C)n2C(=O)c1ccc(Cl)cc1` [INDOMETHACIN], the inhibition in vivo at 10 mg/kg in [7] stood at 12.9%; in [8] it was 24.7%; in [9], 21.8%; in test [10], 19.3%; in test [11], 30.9%. Also, the Time in test [12] was 10.5 s.
